The values below come from patent US12171909B2, “Implants having a drug load of an oxysterol and methods of use” (WARSAW ORTHOPEDIC, INC., priority 2015, dated 2024).

The subject of series [1] is rat two-level spine model. Nature of the series: posterolateral spinal fusion in a rat two-level spine model (radiographs, manual palpation). The following applies: for spinal fusion (figure legend): bone growth at 4 and 8 weeks, fusion confirmed by manual palpation at 8 weeks; for bridging bone on radiographs: 4-week and 8-week timepoints, rat L3-L5; for fusion observed in rat spines (manual palpation): matrix of Oxy133, collagen and ceramic wetted with sterile water, two implants bilaterally in posterolateral space, 8-week sacrifice. The series is classed as in vivo. The procedure:
FIG. 6 illustrates uses of a formulation of compression resistant implants having 20 mg of Oxy133 on each side of the implant, in accordance with the implants described herein. […] Bone growth in rat test subjects can be seen after 4 and 8 weeks post-implantation, and fusion was confirmed by manual palpation of the spine segments at 8 weeks. […] A dry composition of a matrix containing Oxy133, collagen and ceramic as described herein was prepared and wetted with sterile water to be implanted in rat spines as shown in FIG. 6. The wetted matrix was cut in half with a razor blade to yield two halves. The two implants were molded into cylindrical shapes prior to insertion and were positioned bilaterally in the posterolateral space of each test subject. Each implant contained 20 mg Oxy133. Radiographs were taken roughly 10 minutes after the procedure, 4 weeks after the procedure, and 8 weeks after the procedure. […] Fusion was tested at 8-week sacrifice by manual palpation. […] A dry composition of a matrix containing Oxy133, collagen and ceramic as described herein was prepared and wetted with sterile water to be implanted in rat spines as shown in FIG. 6. The wetted matrix was cut in half with a razor blade to yield two halves. The two implants were molded into cylindrical shapes prior to insertion and were positioned bilaterally in the posterolateral space of each test subject. Each implant contained […] Oxy133. Radiographs were taken roughly 10 minutes after the procedure, 4 weeks after the procedure, and 8 weeks after the procedure. […] Fusion was tested at 8-week sacrifice by manual palpation.

Another series is described as follows: solubility in water. The series is classed as physicochemical. From the text:
The Oxy133 can be solubilized in a non-aqueous solvent, such as for example, ethanol and mixed into a solution or suspension. In some embodiments, the Oxy 133 can be filtered by passing the Oxy 133 and solvent through a filter (e.g., 0.22 microns). This will remove bacteria and other larger-size particulates out of the composition. The Oxy 133 used in the composition can be micronized before it is mixed with solvents and other excipients. In various embodiments, the particle size of the Oxy 133 can range from about 1 micron to 250 microns. In some embodiments, the Oxy 133 can have a particle size of from about 5 microns to about 100 microns or from about 20 to 50 microns. The Oxy 133 in the solution or suspension can be added to a slurry of biodegradable polymer and/or the ceramic particles, mixed and, then optionally dried.

For `CCCCCC[C@](C)(O)[C@H]1CC[C@H]2[C@@H]3C[C@H](O)[C@H]4C[C@@H](O)CC[C@]4(C)[C@H]3CC[C@@]21C` [Oxy133, (3S,5S,6S,8R,9S,10R,13S,14S,17S)-17-((S)-2-hydroxyoctan-2-yl)-10,13-dimethylhexadecahydro-1H-cyclopenta [a]phenanthrene-3,6-diol], the “spinal fusion (figure legend)” value is “yielded spinal fusion” in series [1] (20 mg of Oxy133 on each side, FIG. 6) and “yielded spinal fusion” in series [1] (125 mg of Oxy133 on each side, FIG. 7). For the same compound, the “bridging bone on radiographs” value in series [1] (each implant 20 mg Oxy133) and in series [1] (each implant 125 mg Oxy133) was “promoted bridging bone across the transverse processes of L3-L5” each time. Moreover, the “fusion observed in rat spines (manual palpation)” value in series [1] (each implant 20 mg Oxy133) and in series [1] (each implant 125 mg Oxy133) was 100% in each case. Further, the solubility in water result in “solubility in water” is “only slightly soluble or insoluble in water”.
